Source: US20180346731A1, “Formation of Stable Pyranoanthocyanins, and Uses Thereof as Sources of Natural Color” (Ohio State Innovation Foundation, priority 2017, published 2018)

Experiments:
Assay type in all cases: physicochemical
[1] = Colorimetry (CIEL*c*h*, ΔE2000) of anthocyanin isolates treated with pyruvic acid, 31 days storage; details: for total color change (ΔE): day 0 vs day 31, Delta E2000; for Δc* / ΔL*: day 0 to day 31; for increase in hue angle: over 31 days
Procedure: (§1) Prior to dilution, the concentrations of the isolated pigment extracts were determined by the pH differential method for subsequent dilution to known concentrations. The isolates were then diluted to 500 μM (expressed as Cyanidin-3-glucoside equivalents) in pH 2.5 deionized water (previously adjusted with HCl) which contained 0.1% potassium sorbate (w/v) and 0.1% sodium benzoate (w/v) to function as preservative agents during storage. A pH of 2.5 was selected as a compromise of several variables: the flavylium form was predominant, the effect of pKh was minimized, and it is a relevant pH for wines. It has been reported that the pKh's of cy3 gal, cy3xylgal, and cy3xylglugal ranges from 3.01 to 3.26. Working at pH 2.5 largely avoided the effect of different equilibrium forms while also maintaining a pH that is similar to that of wines where these compounds are commonly formed. Control samples of each isolate were prepared and contained no pyruvic acid. For treatments containing pyruvic acid, a previously diluted pyruvic acid standard (pyruvic acid in the same pH 2.5 water containing preservatives) was added to obtain concentrations 100× the molar ratio of anthocyanins (50 mM of pyruvic acid). All treatments were brought to the same final volume by the addition of more pH 2.5 water. Samples were filtered through a 0.2 μm membrane into 1.5 mL glass HPLC vials. Vials were capped and stored in an incubator in the dark at 25° C. for a 31 day duration (Fisher Scientific, Waltham, Mass., U.S.). All treatments were prepared in triplicate.
Colorimetric data of samples was calculated from spectra of samples collected from the plate reader with ColorBySpectra. Absorbance data was obtained and conversion to color values was achieved using the following settings: regular transmission, D65 illuminant, and 10° observer angle. Values reported are in the CIEL*c*h* scale. After storage for 31 days, the mathematical differences in color (ΔE) were calculated according to the CIE-L*a*b* Delta E2000 equation. Colorimetric data of the samples containing pyruvic acid was used to correlate with pyranoanthocyanins formation. Spectral absorbance data of the peaks of the anthocyanins and their respective pyranoanthocyanins were also collected from the PDA during uHPLC analyses and converted to colorimetric data using ColorBySpectra under the settings described above. The spectra was obtained from the time of elution of the target compound and then standardized to an absorbance of 1.0 at λvis-max.

[2] = UV-Vis spectra of anthocyanin isolates treated with pyruvic acid, 31 days storage; details: for decrease in maximum absorbance: 500 μM, pyruvic acid ×100 M ratio, pH 2.5, 25° C., after 31 days
Procedure: as §1
Absorbance spectra of anthocyanin isolates subjected to pyruvic acid treatment was collected using a SpectraMax 190 microplate reader (Molecular Devices, Sunnyvale, Calif., U.S.). Sample aliquots (75 μL) were loaded in a 96-well plate (poly-D-lysine coated polystyrene). Samples were evaluated from 380 to 780 nm in 1 nm intervals. The blank consisted of the same acidified pH 2.5 water solution used to dilute pigment samples. Spectra were collected on day 0, 7, 14, and 31. Spectrophotometric data of the samples was used to correlate with pyranoanthocyanins formation.

[3] = Anthocyanin survival of control treatments at pH 2.5 (uHPLC AUC 500-520 nm); details: pH 2.5 acidified water, no pyruvic acid, 25° C., day 31
Procedure: FIG. 10: Pyranoanthocyanin yield for anthocyanins (500 μM) subjected to pyruvic acid treatment (×100 M ratio) and anthocyanin survival of control treatments at pH 2.5 acidified water at day 7, 14, and 31. Yield defined as (AUC500-520 nm of PACN at tn/AUC500-520 nm of ACN @t0)*100. Survival defined as (AUC500-520 nm of ACN at tn/AUC500-520 nm of ACN @ t0)*100. Values shown are means (n=3) and bars represent standard deviation.
A uHPLC system (Shimadzu Nexera-i LC-2040C, Maryland, U.S.) coupled with tandem MS (Shimadzu LCMS-8040, Maryland, U.S.) was used in evaluating initial anthocyanin purity and monitoring changes in anthocyanins with and without pyruvic acid treatment over time. A 0.4 mL/min flow rate was used on a Pinnacle DB (Restek Corporation, Bellefonte, Pa.) C18 Column (1.9 μm particle size, 50×2.1 mm length). The column oven was set at 40° C. The following gradient of solvent A (4.5% formic acid) and B (100% acetonitrile) was used: 0% B for the first minute, ramped to 15% B by 10 min. This method was effective for separation of the formed pyranoanthocyanin from anthocyanin for all isolates except cy3rut which coeluted with the formed pyranoanthocyanin. This was observed through MS-MS data. […]
Quantification of pigments was conducted on day 0, 3, 7, 14, and 31 using a standard curve of cyanidin-3-glucoside (Sigma Aldrich, St. Louis, Mo., U.S.) run under the same conditions used for isolates. Molar absorptivities of anthocyanins and carboxypyranoanthocyanidins have been reported as being relatively similar and were thought to provide a basis of confidence in using AUC500-520 nm as a quantitative measure of pyranoanthocyanin yield.
Prior to dilution, the concentrations of the isolated pigment extracts were determined by the pH differential method for subsequent dilution to known concentrations. The isolates were then diluted to 500 μM (expressed as Cyanidin-3-glucoside equivalents) in pH 2.5 deionized water (previously adjusted with HCl) which contained 0.1% potassium sorbate (w/v) and 0.1% sodium benzoate (w/v) to function as preservative agents during storage. […]

SMILES	total color change (ΔE) [1]	decrease in maximum absorbance [2] [%]	further results
C[C@@H]1O[C@@H](OC[C@H]2O[C@@H](Oc3cc4c(O)cc(O)cc4[o+]c3-c3ccc(O)c(O)c3)[C@H](O)[C@@H](O)[C@@H]2O)[C@H](O)[C@H](O)[C@H]1O [cy3rut, cyanidin-3-rutinoside]	4.9	30	Δc* [1]: −9.7; increase in hue angle [1]: 1.1 °
OC[C@H]1O[C@@H](OC[C@H]2O[C@@H](Oc3cc4c(O)cc(O)cc4[o+]c3-c3ccc(O)c(O)c3)[C@H](O)[C@@H](O)[C@H]2O)[C@H](O)[C@@H](O)[C@@H]1O [cy3glugal, cyanidin-3-(glucosyl)galactoside]	3.6	26	ΔL* [1]: 1.8; increase in hue angle [1]: 0.5 °
Oc1cc(O)c2cc(O[C@@H]3OC[C@H](O)[C@H](O)[C@H]3O)c(-c3ccc(O)c(O)c3)[o+]c2c1 [cy3ara, cyanidin-3-arabinoside]	16.4	71	anthocyanin survival of control treatment [3]: 66%; shift of λvis-max of solution ([2]; pyruvic acid treated, pH 2.5, by day 31): bathochromic shift; ΔL* [1]: 10.2; Δc* [1]: −42.5
OC[C@H]1O[C@@H](Oc2cc3c(O)cc(O)cc3[o+]c2-c2ccc(O)c(O)c2)[C@H](O)[C@@H](O)[C@@H]1O [cy3glu, cyanidin-3-glucoside]	7.2	–	anthocyanin survival of control treatment [3]: 49%

More lines, main results first:

total color change (ΔE) [1]	decrease in maximum absorbance [2] [%]	SMILES	further results
8.3	–	OC[C@H]1O[C@@H](OC[C@H]2O[C@@H](Oc3cc4c(O)cc(O)cc4[o+]c3-c3ccc(O)c(O)c3)[C@H](O[C@@H]3OC[C@@H](O)[C@H](O)[C@H]3O)[C@@H](O)[C@H]2O)[C@H](O)[C@@H](O)[C@@H]1O [cy3xylglugal, cyanidin-3-(xylosylglucosyl) galactoside]	–
9.2	–	OCC1O[C@@H](Oc2cc3c(O)cc(O)cc3[o+]c2-c2ccc(O)c(O)c2)C(O[C@@H]2OC(CO)[C@@H](O)C(O)[C@H]2O)C(O)[C@@H]1O (stereo partly drawn) [cy3soph, cyanidin-3-sophoroside]	–
7.8	–	OC[C@H]1O[C@@H](Oc2cc3c(O)cc(O)cc3[o+]c2-c2ccc(O)c(O)c2)[C@H](O[C@@H]2OC[C@@H](O)[C@H](O)[C@H]2O)[C@@H](O)[C@H]1O [cy3xylgal, cyanidin-3-(xylosyl)galactoside]	–
9.7	–	OC[C@H]1O[C@@H](Oc2cc(O)cc3[o+]c(-c4ccc(O)c(O)c4)c(O[C@@H]4O[C@H](CO)[C@@H](O)[C@H](O)[C@H]4O[C@@H]4O[C@H](CO)[C@@H](O)[C@H](O)[C@H]4O)cc23)[C@H](O)[C@@H](O)[C@@H]1O [cy3soph5glu, cyanidin-3-sophoroside-5-glucoside]	initial L* ([1]; pH 2.5, day 0): 87.5
